These results are taken from publication PMC12587574, “Mass balance, pharmacokinetics, metabolism, and excretion of radiolabeled acoziborole, a potential novel treatment for human African trypanosomiasis, following single microtracer oral dose to humans” (Antimicrobial Agents and Chemotherapy, 2025).

Molecules are shown by their SMILES. Read-outs that look alike come from different tables or passages of the source.

Data set [1] is described as follows: Urinary excretion / renal clearance of acoziborole and SCYX-3109 by LC-MS/MS. The format is in vivo. The note with it: male, human, urine and plasma; CumAe0–240h/AUC0–240h; mean ± SD; 960 mg single oral dose of acoziborole; read-out: renal clearance CLr0–240h (converted). The procedure:
Urine samples were collected before IP administration (single urine void) and then during intervals of 0–6, 6–12, 12–24, 24–48, 48–72, 72–96, 96–120, 120–168, 168–192, 192–216, and 216–240 h post-dose and for the additional 48-h collection period starting on Day 15 post-dose, that is, 336–384 h. Samples were acidified with citric acid to avoid acoziborole degradation and were refrigerated until the end of the block collection periods. The total weight and volume of urine were then recorded. At the end of each collection period, two aliquots of acidified urine (20 mL) were taken from the sample and stored in polypropylene tubes at −20°C until further analysis for total radioactivity. Two aliquots of 1 mL acidified urine were collected into tubes containing bovine serum albumin in aqueous solution (to avoid non-specific adsorption of acoziborole) and NaCl for acoziborole and SCYX-3109 assays. […]
SGS Belgium (Wavre, Belgium) performed the analysis to determine acoziborole and SCYX-3109 concentrations, using validated bioanalytical assays with liquid chromatography with tandem mass spectrometry (LC-MS/MS) with a Supelco Ascentis Express C8, 2.7 µm, 50 × 2.1 mm I.D. separation column. In plasma, the lower limit of quantification (LLOQ) was 25 ng/mL for acoziborole and 10 ng/mL for SCYX-3109. […]

Details of data set [2]: method as in PMID 21707314. The note with it: cited from earlier work.
On the set-up of data set [3]: method as in PMID 36763327. The note with it: human, after acoziborole; cited from earlier work.
Data set [4] is described as follows: Plasma pharmacokinetics of acoziborole and SCYX-3109 by LC-MS/MS, phase I mass balance study. The format is in vivo, human. The procedure:
This single-center, open-label, single group, non-randomized, single oral dose study was performed at Quotient Sciences Ltd (Ruddington, Nottingham, UK). Clinical trial authorization was obtained from the Medicines and Healthcare Products Regulatory Agency (UK). Approval for administration of [^14C]-acoziborole was obtained from an expert committee sponsored by the Department of Health and Social Care in the United Kingdom (Administration of Radioactive Substances Advisory Committee [ARSAC]), and from the ARSAC-accredited Quotient Sciences’ nuclear medicine practitioner. This study was approved by a local research ethics committee in the United Kingdom and was conducted in compliance with the Declaration of Helsinki and the International Conference on Harmonisation E6 Guideline for Good Clinical Practice. The study was registered in clinicaltrials.gov (NCT04270981) and in EudraCT (reference 2019-004059-35). Written informed consent was obtained from all participants before undertaking any study-related procedures.
Participants were admitted in the evening of the day before dosing (Day −1) and were dosed in the morning of Day 1, following an overnight fast from food and drink of a minimum of 9 h. They remained fasted until approximately 4 h post-dose, at which time lunch was provided. Participants remained resident in the clinic until up to 240 h after dosing (up to Day 11). […] However, due to the COVID-19 pandemic, instead of returning for the outpatient visits, participants were requested to perform home collection of feces for a 48-h period (i.e., Days 31–33, Days 59–61, Days 89–91, and Days 119–121). Collected samples were couriered to the clinical unit at the end of each collection period. A follow-up call took place 5–10 days after the final outpatient visit to ensure the well-being of participants.
Venous blood samples were collected via an indwelling cannula or by venepuncture. A 12 mL sample was taken into heparinized glass tube and chilled on ice immediately before IP administration and 3 mL samples were taken at 1, 4, 9, 12, 24, 48, 72, 96, 120, 144, 168, and 240 h and on Days 15, 31, 59, 89, and 119 after IP administration. The first 0.5 mL of blood withdrawn via cannula was discarded. One aliquot of heparinized whole blood (1 mL) per time point was stored at or below −20°C for total radioactivity analysis. The remaining blood was centrifuged, and the harvested plasma was stored at approximately −20°C for bioanalysis or transferred (exactly 1 mL) into polypropylene tubes pre-filled with 5 µL formic acid. One plasma sample (0.5 mL) was used for metabolite profiling while another (0.5 mL) was used for parent drug and SCYX-3109 metabolite analysis. The remaining plasma was used for total radioactivity analysis.
SGS Belgium (Wavre, Belgium) performed the analysis to determine acoziborole and SCYX-3109 concentrations, using validated bioanalytical assays with liquid chromatography with tandem mass spectrometry (LC-MS/MS) with a Supelco Ascentis Express C8, 2.7 µm, 50 × 2.1 mm I.D. separation column. In plasma, the lower limit of quantification (LLOQ) was 25 ng/mL for acoziborole and 10 ng/mL for SCYX-3109. In urine, the LLOQ was 10 ng/mL for both acoziborole and SCYX-3109.
PK parameters were calculated based on actual sampling times using standard non-compartmental analysis and WinNonlin version 8.1 software (Certara, Princeton, NJ, USA).
The SCYX-3109 to parent ratios were calculated based on Cmax and AUC0–∞.

Data set [5] can be described thus: Metabolite profiling and identification in pools of plasma, urine and feces (UPLC-MS, AMS). The format is in vivo, human. As for the experimental part:
Individual pools of plasma (0–336 h, including time points at 1, 4, 9, 12, 24, 48, 72, 96, 120, 168, 240, and 336 h), urine (0–240 h, including time intervals 0–6, 6–12, 12–24, 24–48, 48–72, 72–96, 96–120, 120–168, 168–192, 192–216, and 216–240 h) and feces homogenates (0–240 h, including time intervals 0–6, 6–12, 12–24, 24–48, 48–72, 72–96, 96–120, 120–168, and 168–240 h) were prepared; for plasma this was done according to the method described in reference and for feces by using equal percentages per time point based on total volume. Subsequently, a pool per matrix was prepared by mixing equal volumes of each participant pool. In addition, a plasma pre-dose pool was prepared by mixing equal volumes of each pre-dose sample. For urine and feces, TNO blank pool was used to generate a pre-dose sample. Samples were stored below −18°C. Samples (100 µL plasma, 250 µL urine, and 200 mg feces) were pre-treated and injected onto an ultra-high performance liquid chromatography (UPLC)-MS system (Acquity UPLC system [Waters] coupled to a Q-Exactive [Thermo]; Acquity HSS C18 VanGuard 5 mm × 2.1 mm, 1.8 µm [Waters] pre-column and Acquity HSS C18 100 mm × 2.1 mm, 1.8 µm d.p. [Waters]). Fractions were collected and analyzed off-line by AMS. AMS analysis was performed on an AMS system, consisting of an elemental analyzer, a double gas interface, and a 1 MV multi-element AMS. All fecal homogenate sample analyzes were performed in triplicate. Plasma pre-dose and TNO blank urine and feces pools were used for background correction. The UPLC method qualification included determination of retention time stability and extraction recovery. Metabolites were tentatively assigned to fractions in which activity greater than the baseline was observed, based on retention time and structural information provided by DNDi. Presence of the metabolite was confirmed by accurate mass data from high-resolution mass spectrometric analysis.

The Tmax is the time at which the peak concentration occurs. One may read the Cmax as the maximum level reached in the sampled fluid or tissue. For the compound `CC(C)(O)c1ccc(NC(=O)c2ccc(F)cc2C(F)(F)F)cc1O` [SCYX-3109], in data set [1], the CL renal was 0.6 mL/min. Moreover, the “activity of the metabolite” value in data set [2] was “inactive”. Besides, the “plasma concentrations at all time points” value in data set [3] was “very low”. Moreover, the AUC(0-t) is 4370 ± 1020 ng·h/mL in data set [4] (human, plasma, po, 960 mg, 960 mg single oral dose of acoziborole, N = 6, mean ± SD, read-out: AUC0–240h in plasma) and 3730 ± 2320 ng·h/mL in data set [4] (human, plasma, po, 960 mg, 960 mg single oral dose of acoziborole, N = 6, mean ± SD, read-out: AUC0–t in plasma). Also, in data set [4] (human, plasma, po, 960 mg, 960 mg single oral dose of acoziborole, N = 6, mean ± SD, read-out: tmax in plasma), the Tmax was 76.1 ± 28 h. In addition, in data set [4] (male, human, plasma, 960 mg single oral dose of acoziborole, healthy males, N = 6, mean ± SD), the peak level (Cmax) was 30.5 ± 10.7 ng/mL. Besides, in data set [4] (over the 240-h period, 960 mg single oral dose), the “plasma level relative to acoziborole, AUC0–240h ratio” value was determined as 0.2%. Further, the “proportion of the dose excreted, urine and feces combined” value in data set [5] (0–240 h pools) is recorded as 12.3%. Further, the “abundance relative to dose, feces” value in data set [5] (feces homogenates 0–240 h) was 12.3%. In data set [5] (feces homogenates 0–240 h), the “relative abundance in radiochromatogram, feces homogenates pool” value came to 24.2%. Also, the “relative abundance in radiochromatogram (share of total radioactivity), plasma pool” value in data set [5] (plasma pool 0–336 h, 960 mg single oral [14C]-acoziborole) is listed as “could not be detected”.
